In PubChem BioAssay (NCI):
Where “and” joins values, the source holds several entries; their conditions need not be identical. Equal entries are not always repeated.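 Results reflect a 48-hour exposure of cells in 96-well plates to compound at five concentrations. GI50 marks 50% less growth. TGI: concentration producing complete growth inhibition.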

Tests used:
Assay in all cases: NCI anticancer screen, dose series, 48 h
[1] = tested on: DU-145 prostate
[2] = tested on: UO-31 renal
[3] = tested on: HCT-15 colon
[4] = tested on: SK-MEL-5 melanoma
[5] = tested on: OVCAR-8 ovarian
[6] = tested on: SNB-19 CNS
[7] = tested on: UACC-257 melanoma
[8] = tested on: HOP-92 NSCLC
[9] = tested on: UACC-62 melanoma
[10] = tested on: KM12 colon

| SMILES | GI50 [1] | TGI [1] | GI50 [2] | TGI [2] | GI50 [3] | TGI [3] | GI50 [4] | TGI [4] | GI50 [5] | TGI [5] | GI50 [6] | TGI [6] | GI50 [7] | TGI [7] | GI50 [8] | TGI [8] | GI50 [9] | TGI [9] | GI50 [10] | TGI [10] |
| --- | --- | --- | --- | --- | --- | --- | --- | --- | --- | --- | --- | --- | --- | --- | --- | --- | --- | --- | --- | --- |
| CC(=O)Nc1ccc2c(c1)[nH]c(=O)c1cc(NC(C)=O)ccc12 | > 100 µM | > 100 µM | > 100 µM | > 100 µM | > 100 µM | > 100 µM | > 100 µM | > 100 µM | > 100 µM | > 100 µM | > 100 µM | > 100 µM | > 100 µM | > 100 µM | 31.9 µM | > 100 µM | > 100 µM | > 100 µM | > 100 µM | > 100 µM |
| Clc1ccc(Nc2nnc(COc3ccccc3)c3ccccc23)cc1 | 2.65 µM | 10.5 µM | 0.727 µM | 5.2 µM | 2.05 µM | 6.75 µM | 1.08 µM | 4.56 µM | 3.49 µM | 15 µM | 3.2 µM | 12 µM | 2.54 µM | 5.82 µM | 0.331 µM | 3.09 µM | 1.24 µM | 5.69 µM | 2.65 µM | 7.72 µM |
| CC1NCCC(CC(=O)O)C1CC(=O)O (centres undefined) | – | > 100 µM | – | > 100 µM | – | > 100 µM | – | > 100 µM | – | > 100 µM | – | > 100 µM | – | > 100 µM | – | > 100 µM | – | > 100 µM | – | > 100 µM |
| C[C@H]1O[C@@H](O[C@H]2[C@@H](O)C[C@H](O[C@H]3[C@@H](O)C[C@H](O[C@H]4CC[C@]5(C)C6CC[C@]7(C)[C@@H](C8=CC(=O)OC8)CC[C@]7(O)C6CC[C@@H]5C4)O[C@@H]3C)O[C@@H]2C)C[C@H](O)[C@@H]1O (some centres undefined) | 0.0113 µM | 0.0249 µM | 0.0181 µM | 0.0722 µM | 0.0257 µM | 0.0982 µM | 0.0156 µM | 0.0493 µM | 0.0178 µM | 0.0648 µM | 0.03 µM | 0.0948 µM | 0.0203 µM | 0.0734 µM | 0.0354 µM | 0.149 µM | 0.0192 µM | 0.075 µM | 0.0247 µM | 0.103 µM |
| C=C1CC2(CC(c3ccccc3C)OC(c3ccccc3C)C2)OC1=O (centres undefined) | – | 24.6 µM | – | 11.3 µM | – | 3.86 µM | – | 3.97 µM | – | 4.63 µM | – | 30.8 µM | – | 3.66 µM | – | 3.18 µM | – | 3.23 µM | – | 6.06 µM |
| C/C=C1/CN2CCC34c5ccccc5N5C(=O)C(C6CC78c9ccccc9N9C(=O)C=CC(C%10CC7N6C/C%10=C/C)C98)=CC(C1CC23)C54 (centres undefined) | – | 23.4 µM | 5.87 µM | 9.81 µM and 20.2 µM | 2.83 µM | 14.6 µM and 10.3 µM | 11.9 µM | 12 µM and 25.1 µM | 2.78 µM | 8.57 µM and 10.8 µM | 14.8 µM | 15.2 µM and 30 µM | 2.93 µM | 12.2 µM and 9.24 µM | 0.466 µM | 13.6 µM and 6.71 µM | 10.9 µM | 14.4 µM and 23.6 µM | 2.94 µM | 36.8 µM and 12.2 µM |
| COc1ccc(COc2ccc(Cc3cnc(N)nc3N)cc2OC)cc1 | > 25 µM | > 25 µM | 11.9 µM | > 25 µM | > 23.7 µM | > 25 µM | 3.43 µM | 7.66 µM | > 25 µM | > 25 µM | > 25 µM | > 25 µM | 8.48 µM | > 25 µM | 1.29 µM | > 21 µM | 12 µM | > 25 µM | 1.03 µM | > 25 µM |
| O=C(Nc1ccc([N+](=O)[O-])cc1Cl)c1cc(Cl)ccc1O | 0.199 µM and 0.352 µM | 6.22 µM and 35.5 µM | 0.129 µM and 0.254 µM | 0.437 µM and 1.01 µM | 0.154 µM and 0.26 µM | 3.2 µM | 0.0515 µM and 0.116 µM | 0.15 µM and 0.276 µM | 0.147 µM and 0.33 µM | 0.605 µM | 0.164 µM and 0.248 µM | 50 µM and > 100 µM | 0.0846 µM and 0.185 µM | 0.267 µM and 0.603 µM | 0.0194 µM and 0.0591 µM | 0.1 µM and 0.261 µM | 0.0773 µM and 0.0678 µM | 0.568 µM and 0.392 µM | 0.169 µM and 0.303 µM | 0.608 µM and 1.2 µM |
| Cc1ccc(O)c(C(=O)/C=C/c2ccccc2)c1 | – | > 100 µM | – | > 100 µM | – | > 100 µM | – | > 100 µM | – | > 100 µM | – | > 100 µM | – | > 100 µM | – | > 100 µM | – | > 100 µM | – | > 100 µM |
| CC#CC#C/C=C1/C=CC2(CCCCO2)O1 (centres undefined) | – | > 100 µM | – | > 100 µM | – | > 100 µM | – | > 100 µM | – | > 100 µM | – | > 100 µM | – | > 100 µM | – | > 100 µM | – | > 100 µM | – | > 100 µM |
| Cc1cc(C(=O)NOCCO)c(Nc2ccc(I)cc2F)n(C)c1=O | > 10 µM and 53.8 µM | > 100 µM | 0.0289 µM and < 0.045 µM | > 100 µM | > 3.01 µM and 2.64 µM | > 100 µM | < 0.01 µM | > 100 µM | > 36.5 µM | > 100 µM | 6.08 µM | > 100 µM | 0.00186 µM and < 0.01 µM | 0.0128 µM and < 0.0197 µM | 0.00585 µM and 0.0235 µM | 0.2 µM and 1.04 µM | 0.0015 µM and < 0.01 µM | 0.0116 µM and 0.0221 µM | 0.0263 µM and < 0.0161 µM | > 100 µM |
| Cc1ccccc1N=C(c1ccccc1)C1C(=O)c2ccccc2C1=O | 22.4 µM | 69.6 µM | 4.14 µM | 47.4 µM | 11.3 µM | 73 µM | 2.41 µM | 13.3 µM | 15 µM | > 100 µM | 20.8 µM | > 100 µM | 18 µM | 96.6 µM | 14.4 µM | 53.8 µM | 11.6 µM | 30.7 µM | 10.7 µM | 30.8 µM |
| Nc1[nH]c(=S)[nH]c(=O)c1N=Nc1c(Br)cc(S(N)(=O)=O)cc1Br | – | > 100 µM | – | > 100 µM | – | > 100 µM | – | > 100 µM | – | > 100 µM | – | > 100 µM | – | > 100 µM | – | > 100 µM | – | > 100 µM | – | > 100 µM |
| Cc1cccc(Nc2ncc(-c3ccccc3)o2)c1 | > 25 µM | > 25 µM | > 25 µM | > 25 µM | > 25 µM | > 25 µM | > 25 µM | > 25 µM | > 25 µM | > 25 µM | > 25 µM | > 25 µM | > 25 µM | > 25 µM | > 25 µM | > 25 µM | > 25 µM | > 25 µM | 8.04 µM | > 25 µM |
| O=C(Nc1ccn(C2CCC(COC(c3ccccc3)(c3ccccc3)c3ccccc3)O2)c(=O)n1)c1ccccc1 (centres undefined) | – | 15.5 µM | – | 14.1 µM | – | 11.2 µM | – | 6.41 µM | – | 10.1 µM | – | 14.8 µM | – | 17.9 µM | – | 4.74 µM | – | 16.7 µM | – | 14.6 µM |
